5 compounds from patent US11414418B2, “Compounds useful as immunomodulators” (Bristol-Myers Squibb Company, priority 2018, dated 2022) can be followed below.

Chain of PD-1/PD-L1 interaction (PD-1-Ig / PD-L1-His) (Q9NZQ7 other isoform, or with tags, fused parts or gaps): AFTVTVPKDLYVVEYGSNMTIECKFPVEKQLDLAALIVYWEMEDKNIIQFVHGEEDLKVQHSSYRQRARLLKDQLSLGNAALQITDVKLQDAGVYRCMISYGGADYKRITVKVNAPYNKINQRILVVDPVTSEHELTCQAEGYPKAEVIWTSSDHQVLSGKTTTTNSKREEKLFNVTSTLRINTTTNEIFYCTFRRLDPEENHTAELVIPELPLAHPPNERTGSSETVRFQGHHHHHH

The assay concerns the target PD-1/PD-L1 interaction (PD-1-Ig / PD-L1-His) (Homo sapiens (Human), UniProt Q9NZQ7). Description: PD-1/PD-L1 Homogenous Time-Resolved Fluorescence (HTRF) binding assay. The note with it: PD-L1-His 10 nM final, PD-1-Ig 20 nM final. From the text: The ability of the compounds of formula (I) to bind to PD-L1 was investigated using a PD-1/PD-L1 Homogenous Time-Resolved Fluorescence (HTRF) binding assay.
1. Homogenous Time-Resolved Fluorescence (HTRF) Binding Assay.
The interaction of PD-1 and PD-L1 can be assessed using soluble, purified preparations of the extracellular domains of the two proteins. The PD-1 and PD-L1 protein extracellular domains were expressed as fusion proteins with detection tags, for PD-1, the tag was the Fc portion of Immunoglobulin (PD-1-Ig) and for PD-L1 it was the 6 histidine motif (PD-L1-His). All binding studies were performed in an HTRF assay buffer consisting of dPBS supplemented with 0.1% […] bovine serum albumin and 0.05% (v/v) Tween-20. For the h/PD-L1-His binding assay, inhibitors were pre-incubated with PD-L1-His (10 nM final) for 15 m in 4 μl of assay buffer, followed by addition of PD-1-Ig (20 nM final) in 1 μl of assay buffer and further incubation for 15 m. HTRF detection was achieved using europium crypate-labeled anti-Ig (1 nM final) and allophycocyanin (APC) labeled anti-His (20 nM final). Antibodies were diluted in HTRF detection buffer and 5 μl was dispensed on top of the binding reaction. The reaction mixture was allowed to equilibrate for 30 minutes and the resulting signal (665 nm/620 nm ratio) was obtained using an EnVision fluorometer. Additional binding assays were established between the human proteins PD-1-Ig/PD-L2-His (20 & 5 nM, respectively) and CD80-His/PD-L1-Ig (100 & 10 nM, respectively).
Recombinant Proteins: Human PD-1 (25-167) with a C-terminal human Fc domain of immunoglobulin G (Ig) epitope tag [hPD-1 (25-167)-3S-IG] and human PD-L1 (18-239) with a C-terminal His epitope tag [hPD-L1 (18-239)-TVMV-His] were expressed in HEK293T cells and purified sequentially by ProteinA affinity chromatography and size exclusion chromatography. Human PD-L2-His and CD80-His was obtained through commercial sources.
The IC50 is the concentration needed to halve the response being measured. `O=C(CCCN1CC[C@@H](OCc2ccccc2)C1)N1CCCC2(CCCN(C(=O)CCCN3CC[C@@H](OCc4ccccc4)C3)C2)C1` [Example 1001, 1,1′-(2,8-diazaspiro[5.5]undecane-2,8-diyl)bis(4-((R)-3-(benzyloxy)pyrrolidin-1-yl)butan-1-one)] returned an IC50 greater than 2.5 µM.

`O=C(CCCN1CC[C@@H](O)C1)N1CCCC2(CCCN(C(=O)CCCN3CC[C@@H](O)C3)C2)C1` [Example 1002, 1,1′-(2,8-diazaspiro[5.5]undecane-2,8-diyl)bis(4-((R)-3-hydroxypyrrolidin-1-yl)butan-1-one)] had an IC50 of 0.84 µM.

Compound `C[C@@](CO)(NCc1cc(Cl)c(CCC(=O)N2CCCC3(CCCN(C(=O)CCCN4CC[C@@H](OCc5ccccc5)C4)C3)C2)cc1OCc1cncc(C(N)=O)c1)C(=O)O` (stereo partly drawn) [Example 1003, (2S)-2-((4-(3-(8-(4-((R)-3-(benzyloxy)pyrrolidin-1-yl)butanoyl)-2,8-diazaspiro[5.5]undecan-2-yl)-3-oxopropyl)-2-((5-carbamoylpyridin-3-yl)methoxy)-5-chlorobenzyl)amino)-3-hydroxy-2-methylpropanoic acid] returned an IC50 greater than 10 µM.

Compound `C[C@@](CO)(NCc1cc(Cl)c(CCC(=O)N2CCCC3(CCCN(C(=O)CCCN4CC[C@@H](OCc5ccccc5)C4)C3)C2)cc1OCc1cncc(C#N)c1)C(=O)O` (stereo partly drawn) [Example 1004, (2S)-2-((4-(3-(8-(4-((R)-3-(benzyloxy)pyrrolidin-1-yl)butanoyl)-2,8-diazaspiro[5.5]undecan-2-yl)-3-oxopropyl)-5-chloro-2-((5-cyanopyridin-3-yl)methoxy)benzyl)amino)-3-hydroxy-2-methylpropanoic acid] came in with an IC50 greater than 10 µM.

`COC(=O)c1cncc(COc2cc(CCC(=O)N3CCCC4(CCCN(C(=O)CCCN5CC[C@@H](OCc6ccccc6)C5)C4)C3)c(Cl)cc2CN[C@@](C)(CO)C(=O)O)c1` (stereo partly drawn) [Example 1005, (2S)-2-((4-(3-(8-(4-((R)-3-(benzyloxy)pyrrolidin-1-yl)butanoyl)-2,8-diazaspiro[5.5]undecan-2-yl)-3-oxopropyl)-5-chloro-2-((5-(methoxycarbonyl)pyridin-3-yl)methoxy)benzyl)amino)-3-hydroxy-2-methylpropanoic acid] came in with an IC50 greater than 10 µM.
